Assay results: publication PMC11718441, “Bis-3-chloropiperidines: a novel motif for anthelmintic drug design” (RSC Advances, 2025)
“Also recorded” adds a separate entry of the source. Like-named read-outs stand apart in the source and are kept apart here.

Columns and labels:
[1] = tested on: Escherichia coli ATCC35218; assay: microbe, parasite or virus in culture; type: cell-based; conditions: ATCC35218, read-out: MIC Ec
Protocol: (§1) The minimum inhibitory concentration (MIC) of the synthesized compounds was initially determined against three microbial indicator strains (Escherichia coli ATCC35218, […] ATCC33592, Septoria tritici MUCL45408). […]
(§2) 2. Microbial and parasitological studies
(§3) The minimum inhibitory concentration (MIC) of the synthesized compounds was determined against three microbial indicator strains (E. coli ATCC35218, S. aureus ATCC33592 and S. tritici MUCL45408) as previously described.1,2 All samples were dissolved in DMSO and tested in triplicate. Briefly, a pre-culture of E. coli and S. aureus was prepared by incubating the strains in cation adjusted Mueller Hinton 2 broth (Becton Dickinson, Sparks, NV, USA) at 37°C and 180 rpm overnight. The cell density of adjusted to 5 × 10^5 cells/mL before assays were incubated at 37 °C, 180 rpm and 85% rH. Three distinct dilution series of standard antibiotics (gentamicin, rifampicin, […]
(§4) medium without test compound or positive control was used as negative control.
(§5) Medium background was averaged from 5 replicates. The turbidity of each well was […]

S. aureus ATCC33592 = assay: microbe, parasite or virus in culture; type: cell-based; conditions: Staphylococcus aureus, ATCC33592, read-out: MIC Sa
Protocol: as §1, §2, §3, §4, §5

[2] = tested on: Septoria tritici MUCL45408; assay: Minimum inhibitory concentration (MIC), S. tritici (ATP quantification); type: cell-based; conditions: Zymoseptoria tritici, read-out: MIC St
Protocol: as §1, §2
The minimum inhibitory concentration (MIC) of the synthesized compounds was determined against three microbial indicator strains (E. coli ATCC35218, S. aureus ATCC33592 and S. tritici MUCL45408) as previously described.1,2 All samples were dissolved in DMSO and tested in triplicate. Briefly, a pre-culture of E. coli and S. aureus was prepared by incubating the strains in cation adjusted Mueller Hinton 2 broth (Becton Dickinson, Sparks, NV, USA) at 37°C and 180 rpm overnight. The cell density of adjusted to 5 × 10^5 cells/mL before assays were incubated at 37 °C, 180 rpm and 85% rH. Three distinct dilution series of standard antibiotics (gentamicin, rifampicin, and tetracycline) were used as positive controls on each assay plate. Inoculated medium without test compound or positive control was used as negative control.
Medium background was averaged from 5 replicates. The turbidity of each well was measured with a microplate spectrophotometer at 600 nm (LUMIstar® Omega, BMG Labtech) and growth inhibition was calculated relative to the absorption of the controls. For S. tritici MUCL45408 inoculated at a density of 1 × 10^5 cells/mL in potato […]
dextrose medium. Septoria assay plates were incubated for 4 days at 25 °C, 180 rpm and 85% rH. Tebuconazole, amphotericin B, and nystatin were used as positive controls. Cell viability was evaluated via ATP quantification (BacTiter-Glo™, Promega GmbH, Walldorf, Germany) according to the manufacturer’s instructions. […]

C. elegans N2 = assay: whole plant or invertebrate; type: cell-based, Caenorhabditis elegans; conditions: Caenorhabditis elegans, 48 h, read-out: MMIC N2
Description: (§6) The cuticle of C. elegans strain DC19 is known to be more permeable for small molecules compared to the wildtype N2.[30] DC19 is thereby considered an informative drug-sensitive test organism. In our assays, we determined the minimum mobility inhibitory concentration (MMIC) as a proxy for anthelmintic activity. […] In contrast, MMICs of some small molecule anthelmintics such as albendazole, mebendazole or PF-1022A were lower for DC19 (Fig. S1 ^†). […]
(§7) 2.2 In vitro tests against Caenorhabditis Elegans
(§8) The minimal motility inhibitory concentration (MMIC) of compounds 1-22 against C. elegans was determined as described before.3 Both strains, C. elegans N2 and DC19 were treated identically. Briefly, pre-cultures of C.elegans were kept on NGM agar plates infused with auxotrophic E.coli OP50 as food source.4 After 4 days the plates contained sufficient gravid worms, respectively. Worms were washed from the plates with M9 buffer using wide bore pipette tips. Egg preparation was carried out by treating the harvested worms with an alkaline hypochlorite solution (5 M NaOH + 5 % NaOCl 1:2) in polypropylene tubes. Larvae and adult […]
(§9) We carried out 3 washing steps (M9 buffer) to remove carry-over hypochlorite solution. Subsequently, the eggs were incubated overnight in NGM broth on a rotator to yield synchronized hatched L1/L2 larvae. The larvae solution was adjusted to 100 worms/mL and supplemented with cholesterol (5 µg/mL), carbenicillin (25 µg/mL) and E.coli OP50 (0.5%). This assay solution was distributed into 96 well plates and incubated with a dilution series of compounds 1-22 (64-0.5 µg/mL). An additional eight-point dilution series of ivermecin (40 – 0.3 ng/mL) was used as positive control on each assay plate. Solvent background was controlled by supplementation of pure DMSO without any compound. Assays were incubated for 2 days at room temperature. Finally, a cell imaging multimode reader (Cytation™ 5) was used to record short videos (1.5 seconds) of each individual test well. The videos were used to evaluate the worm motility.

Schistosoma mansoni = assay: In vitro tests against Schistosoma mansoni (vitality parameters of adult worm pairs); type: cell-based; conditions: for activity against S. mansoni (100% effect strength in one parameter within 7 days = active): 10 or 20 μM
Protocol: Subsequently, we tested whether compounds with nematocidal activity display a broader activity also against parasitic flatworms. To this end, in vitro tests against the blood fluke S. mansoni were conducted (Fig. 4). The worms were incubated in presence of 10 and 20 μM of compounds 1–22 and phenotypic vitality parameters (separation of worm pairs, detachment of suckers from the bottom of the well and weakening of body movements) were assessed as previously described.[31] Compounds reaching 100% effect strength in one of the parameters within 7 days were considered active. Reduction of motility is considered most relevant for antischistosomal drug candidates.[32] In addition, loss of sucker activity would make parasites drifting off from their host habitat (mesenteric veins) and with pair separation, the production of pathology-causing eggs eventually ceases.[33] […] For some molecular targets e.g. glutamate and GABA chloride channels (ivermecin, abamectin) and β-tubulin (albendazole, mebendazole) the C. elegans assays results were transferable to Schistosoma, while for others e.g. acetylcholin mimetic (levamisole) the C. elegans MMIC was not predicative (Fig. S1 ^†).
2.2 Parasitological studies
Animal experiments were performed in accordance with Directive 2010/63/EU on the protection of animals used for scientific purposes and the German Animal Welfare Act. The experiments were approved by the Regional Council (Regierungspraesidium) Giessen (V54 – […]
A Liberian strain of S. mansoni was maintained in the freshwater snail Biomphalaria glabrata as intermediate host and Syrian hamsters (Mesocricetus auratus) as final host (Janvier Labs, France).5,6 Hamsters were infected at 8 weeks of age with 1,750 cercariae by using the paddling method.7 Adult worms were collected at 46 days p.i. by hepatoportal perfusion and cultured in M199 medium (Sigma-Aldrich, Germany) supplemented with 10% Newborn Calf Serum (NCS, Sigma-Aldrich), 1% 1 M HEPES (ThermoFisher Scientific, USA) and 1% ABAM solution (10,000 units/ml penicillin, 10 mg/ml streptomycin and […] amphotericin B; Sigma-Aldrich, Germany) at 37 °C, 5% CO2 and humidified atmosphere.
2.2.3. In vitro tests against Schistosoma mansoni
Test compounds were added at 10 µM or 20 µM in supplemented M199 medium to schistosomes (5 worm pairs per replicate) followed by a 7 d in vitro culture. Worms receiving the solvent DMSO at equal dilution served as negative control. The following vitality parameters were assessed every 24 h by bright field microscopy using a Leica DM IL inverted microscope and x2.5 objective lens: separation of worm pairs into male and female worms; detachment of suckers from the bottom; and weakening of body movements. Worm motility was scored as described previously, 8 with the scores 3 (normal motility), 2 (reduced motility), 1 (minimal and sporadic movements), 0 (no movements within 20 sec; dead worms). An average score of all worms per well was calculated to obtain a motility score. An average motility score of 0, separation of all pairs or detachment of all worms per well was considered

[3] = tested on: C. elegans strains N2 and DC19; assay: MMIC against C. elegans, strains N2 and DC19 reported together or strain not stated; type: cell-based; conditions: Caenorhabditis elegans, 48 h
Description: as §6, §7, §8, §9

MDCK II cells = assay: In vitro cytotoxicity, CellTiter-Glo, MDCK II cells; conditions: 100 μM; for MDCKII cytotoxicity: 48 h, cell viability less than 80% relative to DMSO control = cytotoxic
C. elegans DC19 = assay: whole plant or invertebrate; type: cell-based, Caenorhabditis elegans; conditions: Caenorhabditis elegans, 48 h, read-out: MMIC DC19
Description: as §6, §7, §8, §9

in vitro = conditions: dog
[4] = C. elegans, read-out: MMIC N2 and DC19
[5] = 96 h, S. tritici MUCL45408, 4 days

Row | Structure (SMILES) | MIC [1] | MIC (S. aureus ATCC33592) | MIC ([2]; MUCL45408, 96 h) | minimal effective concentration (C. elegans N2) | activity against S. mansoni (100% effect strength in one parameter within 7 days = active) (Schistosoma mansoni) | minimal effective concentration [3, 4] | MDCKII cytotoxicity (MDCK II cells) | MIC [2, 5] | minimal effective concentration (C. elegans DC19; C. elegans DC19, 2 days) | minimal effective concentration (C. elegans N2; C. elegans N2, 2 days) | other results
1 | CN(C)c1cc(CN2CC(Cl)CC(C)(C)C2)cc(CN2CC(Cl)CC(C)(C)C2)c1 (stereo not shown) [Compound 3] | > 64 µg/mL | > 64 µg/mL | > 64 µg/mL | 16 µg/mL | showed an effect on S. mansoni | < 20 µg/mL | + (“+” (toxic)) |  |  |  | lethal effects (Schistosoma mansoni; 20 μM, after seven days): lethal effects; sucker detachment (Schistosoma mansoni; 20 μM, after three days): sucker detachment already after three days; cytotoxicity against MDCK II (in words) (MDCK II cells): cytotoxic
2 | Cc1cc(CN2CC(Cl)CC(C)(C)C2)cc(CN2CC(Cl)CC(C)(C)C2)c1 (stereo not shown) [Compound 7] | > 64 µg/mL | > 64 µg/mL |  |  | showed an effect on S. mansoni | < 20 µg/mL |  | > 64 µg/mL | 16 µg/mL |  | 
3 | CC1(C)CC(Cl)CN(Cc2ccccc2CN2CC(Cl)CC(C)(C)C2)C1 (stereo not shown) [Compound 8] | > 64 µg/mL | > 64 µg/mL |  |  |  | < 20 µg/mL |  |  |  | 8 µg/mL | phenotypic changes / vitality parameters of Schistosoma (Schistosoma mansoni; up to 20 μM, in comparison to the untreated control): did not inflict any phenotypic changes
4 | CC1(C)CC(Cl)CN([C@H]2CC[C@H](N3CC(Cl)CC(C)(C)C3)CC2)C1 (stereo partly shown) [Compound 10] | > 64 µg/mL | > 64 µg/mL |  |  |  | ≥ 64 µg/mL |  | > 64 µg/mL | > 64 µg/mL | > 64 µg/mL | 
5 | COC(=O)[C@H](CCCCN1CC(Cl)CC(C)(C)C1)N1CC(Cl)CC(C)(C)C1 (stereo partly shown) [Compound 11] | > 64 µg/mL | > 64 µg/mL | > 64 µg/mL | > 64 µg/mL | Schistosoma-specific; also recorded: active at 20 μM |  | − (“−” (not toxic)) |  |  |  | minimal effective concentration (C. elegans DC19): > 64 µg/mL; detachment of suckers and pair separation (Schistosoma mansoni; 20 μM, after 7 days incubation): detachment of suckers and pair separation; Effect on S. mansoni (Schistosoma mansoni; 10 and 20 μM, up to 7 days, Det: detachment of suckers, Mot: motility reduction, Sep: pair separation): Det, Sep; CC50 (in vitro): 123 µM
6 | CC1(C)CC(Cl)CN(CCCC[C@@H](C(=O)OCCc2ccccc2)N2CC(Cl)CC(C)(C)C2)C1 (stereo partly shown) [Compound 12] | > 64 µg/mL | > 64 µg/mL |  |  | showed an effect on S. mansoni | < 20 µg/mL |  | > 64 µg/mL | 16 µg/mL |  | sucker detachment of Schistosoma worm pairs (Schistosoma mansoni; 10 μM): full sucker detachment; motility score (Schistosoma mansoni; score 3 normal motility to 0 dead, paragraph on 20 μM): 1–1.2
7 | CC1(C)CC(Cl)CN(CCN2CC(Cl)CC(C)(C)C2)C1 (stereo not shown) [Compound 15] | > 64 µg/mL | > 64 µg/mL | > 64 µg/mL | > 64 µg/mL |  |  | + (“+” (toxic)) |  |  |  | minimal effective concentration (C. elegans DC19): > 64 µg/mL; minimal effective concentration ([3]; read-out: MMIC N2 and DC19, C. elegans): ≥ 64 µg/mL
8 | CCCCN1CC(Cl)CC2(CC2)C1 (stereo not shown) [Compound 17] | > 64 µg/mL | > 64 µg/mL |  |  |  |  | − (“−” (not toxic)) | > 64 µg/mL | > 64 µg/mL | > 64 µg/mL | 
9 | CC1(C)CC(Cl)CN(Cc2ccccc2)C1 (stereo not shown) [Compound 18] | > 64 µg/mL | > 64 µg/mL | > 64 µg/mL | > 64 µg/mL |  |  | + (“+” (toxic)) |  |  |  | minimal effective concentration (C. elegans DC19): 32 µg/mL
10 | Cl[C@H]1CCCN(Cc2ccccc2)C1 [Compound 19] | > 64 µg/mL | > 64 µg/mL |  |  |  |  | − (“−” (not toxic)) | > 64 µg/mL | > 64 µg/mL | > 64 µg/mL | 
11 | Cl[C@@H]1CCCN(Cc2ccccc2)C1 [Compound 20] | > 64 µg/mL | > 64 µg/mL |  |  |  |  | − (“−” (not toxic)) | > 64 µg/mL | > 64 µg/mL | > 64 µg/mL | 
12 | COc1cc(CN2CC(O)CC(C)(C)C2)cc(CN2CC(O)CC(C)(C)C2)c1 (stereo not shown) [Compound 22] | > 64 µg/mL | > 64 µg/mL |  |  |  |  | − (“−” (not toxic)) | > 64 µg/mL | > 64 µg/mL | > 64 µg/mL | 
